Assay results published in patent publication US20260108505A1, “EYE DROP COMPOSITION COMPRISING NOVEL MOLECULAR ASSOCIATION OF AXITINIB AND METHOD FOR PREPARING THE SAME” (SCAI THERAPEUTICS CO., LTD., priority 2024, published 2026).
Marks after values point to notes of the source that are not given here.

Experiments:
[1] = Solubility of SCAI-Form and API at pH 1 and pH 2; assay type: physicochemical; settings: for Dissolution concentration at pH 1: stirred 15 minutes at 5 mg/mL, diluted 10 times with DW, measured value x 10; for Dissolution concentration at pH 1 / Dissolution concentration at pH 2: filtered; for Dissolution concentration at pH 2: stirred 15 minutes at 1 mg/mL
Method: Method for measuring solubility at pH 1: Stirred for 15 minutes at a concentration of 5 mg/mL, and then filtered, diluted 10 times with DW, and analyzed. (The value calculated as [measured value×10] is described in the results)
Method for measuring solubility at pH 2: Stirred for 15 minutes at a concentration of 1 mg/mL, and then filtered, and analyzed.

grade 3/4 CNV lesions [2] = test: Laser-induced CNV monkey model, fundus fluorescein angiography (FFA): leakage area and spot number; assay type: in vivo, rhesus monkeys; settings: n = 6 eyes
From the text: (§1) In this experiment, neovascularization was induced by damaging the choroid of both eyes using a laser in a monkey animal model, and then treated with drugs, and the efficacy is compared and evaluated by performing fundus fluorescein angiography (FFA) and optical coherence tomography (OCT) and measuring the neovascular area and spot number in the damaged area and the retinal lesion thickness.
(§2) Experimental CNV in monkey eyes was induced using a laser photocoagulation system (Vitra 532 nm, Quantel Medical, France).
(§3) Laser parameters: laser wavelength of 532 nm; spot size of 50 μm; energy of 600-800 mW; exposure time of 0.1 s.
(§4) A total of eight rhesus monkeys were used to induce CNV. The animals were anesthetized by intramuscular injection of ketamine hydrochloride (20 mg/kg) and dexmedetomidine hydrochloride (0.03 mg/kg), and then both eyes of each monkey were burned at 8-9 points around the macula, approximately one disc diameter from the macula. Care was taken not to aim the laser at the macula. The force used depended on the morphology of the subretinal bleb indicating a perforation of the Bruch's membrane. If no bled formed, higher energy was used at the next point. Color fundus photography (Retinal Camera TRC-50DX, Topcon Healthcare, Japan) was performed immediately after laser photocoagulation to observe the laser dots. Fundus fluorescein angiography (FFA) examination was performed 12 days after laser induction. Modeling was assessed as successful if there was one or more fluorescence leakage point of grade III and/or grade IV. Animals were enrolled in treatment and randomly divided into two groups based on the total leakage area of grade III and IV laser spots (Tables 10 and 11). The monkeys that were not included were returned to the PRIMED Animal Care Department.
(§5) Frequency: a total of 4 times, 1 time before laser photocoagulation, 1 time before administration (−Day 2), 1 time on Day 14 and 1 time on Day 28 after the first administration.
FFA image acquisition protocol: The FP images were taken, and then FFA was performed. After intravenous infusion of 10% sodium fluorescein (Alcon Laboratories, USA) at a dose of 0.075 mL/kg, rapid posterior polar photographs of the right eye were taken. The left eye was then used to monitor leakage of fluorescein related to the CNV lesion at serial time points (1, 5, and 10 minutes).
To quantify the area of CNV leakage, the total area of hyperfluorescence per eye was measured in late FFA images using Image J software (version 1.52a, Wayne Rasband National Institutes of Health, USA). Images from the later stage (10 min) were also used to calculate the amount and grade of CNV spots (Table 12).
(§6) Data analysis consisted of total area of fluorescein leakage points at one of the registered photocoagulation points, volume of fluorescein leakage points, and retinal thickness. Animal observations, photography, fundus and slit-lamp examinations were recorded and summarized in a report. The mean and standard deviation of the percent change in the total area of fluorescein leakage spots and the percent change in retinal thickness were calculated. Microsoft Office Excel 2013 and SPSS Statistics 13.0 were used for data processing and statistical analysis.

grade 3/4 CNV lesions [3] = test: Laser-induced CNV monkey model, optical coherence tomography (OCT): retinal thickness; assay type: in vivo, rhesus monkeys; settings: n = 6 eyes; for Percent change of retinal thickness (Mean±SD): relative to (baseline − before laser induction), Example 15 (0.08%) eye drops
From the text: as §1, §2, §3, §4
Optical coherence tomography (OCT): Heidelberg Spectralis OCT plus.
as §5
OCT image acquisition protocol: FP and FFA images were taken, and then OCT scans were performed. Efforts were made to maintain uniformly illuminated and well-focused fundus images and high-quality OCT. Once the focus was aligned on the central macula by observation of the monitor screen, the monkey's eyes were identified by applying a high-speed macular scan process. Retinal thickness was automatically measured using software embedded in the Heidelberg OCT by measuring the distance between the internal border membrane and Bruch's membrane. Two membrane lines were found manually. The location with the maximum thickness around the grade III or IV point was selected for measurements. Heidelberg OCT unique has technical characteristics that ensure longitudinal measurements of retinal thickness at the same location.
as §6

[4] = Baseline (after induction, before treatment), group later given Example 15 eye drops
[5] = Day 14, Example 15 (0.08%) eye drops 4 times/day

SMILES	Solubility of SCAI-Form relative to API ([1]; from Table 6, pH 1 and pH 2)	Dissolution concentration at pH 1 ([1]; listed as SCAI-Form) [mg/mL]	Dissolution concentration at pH 2 ([1]; listed as SCAI-Form) [mg/mL]	Leakage area of grade 3/4 CNV lesions (Mean±SD) (grade 3/4 CNV lesions [2]; [4]) [mm^2]	Amount of grade 3/4 leakage spots (grade 3/4 CNV lesions [2]; [5])	Leakage area of grade 3/4 CNV lesions (Mean±SD) (grade 3/4 CNV lesions [2]; Day 14, Example 15 (0.08%) ophthalmic solution, 1 drop 50 μL, 4 times/day topical) [mm^2]	Percent change of leakage area (Mean±SD) (grade 3/4 CNV lesions [2]; Day 14 vs baseline, Example 15 (0.08%) eye drops 4 times/day) [%]	Amount of grade 3/4 leakage spots (grade 3/4 CNV lesions [2]; Day 28, Example 15 (0.08%) eye drops 4 times/day)	Leakage area of grade 3/4 CNV lesions (Mean±SD) (grade 3/4 CNV lesions [2]; Day 28, Example 15 (0.08%) ophthalmic solution, 1 drop 50 μL, 4 times/day topical, p < 0.05 vs baseline)	Percent change of leakage area (Mean±SD) (grade 3/4 CNV lesions [2]; Day 28 vs baseline, Example 15 (0.08%) eye drops 4 times/day, p < 0.05 vs vehicle) [%]	Amount of grade 3/4 leakage spots (grade 3/4 CNV lesions [2]; baseline, group later given Example 15 eye drops)	Average retinal thickness of grade 3/4 CNV lesions (Mean±SD) (grade 3/4 CNV lesions [3]; [4]) [μm]	Average retinal thickness of grade 3/4 CNV lesions (Mean±SD) (grade 3/4 CNV lesions [3]; [5]) [μm]	Percent change of retinal thickness (Mean±SD) (grade 3/4 CNV lesions [3]; Day 14) [%]	Average retinal thickness of grade 3/4 CNV lesions (Mean±SD) (grade 3/4 CNV lesions [3]; Day 28, Example 15 (0.08%) eye drops 4 times/day, p < 0.01 vs baseline) [μm]	Percent change of retinal thickness (Mean±SD) (grade 3/4 CNV lesions [3]; Day 28, p < 0.01 vs vehicle) [%]	Dissolution concentration at pH 1 [1] [mg/mL]	Dissolution concentration at pH 2 [1] [mg/mL]
CNC(=O)c1ccccc1Sc1ccc2c(/C=C/c3ccccn3)n[nH]c2c1 [SCAI-005, axitinib]	about twice	4.363	0.171	9.01 ± 2.25	47*	9.65 ± 4.85	4.5 ± 39.1	43*	6.46 ± 3.30* mm^2	−30.2 ± 28.9	53	430 ± 45	406 ± 68	−26.0 ± 26.3	358 ± 40	−61.4 ± 16.0	–	–
CNC(=O)c1ccccc1Sc1ccc2c(/C=C/c3ccccn3)n[nH]c2c1 [API, axitinib]	–	–	–	–	–	–	–	–	–	–	–	–	–	–	–	–	2.661	0.073
